We go through one compound from ChEMBL document CHEMBL1629642, “In vitro efficacy of ST246 against smallpox and monkeypox” (Antimicrob Agents Chemother, 2009).

Structures are written as SMILES. Calls of active or inactive are those of the source. The rule behind the calls is not given here.

Assay [1] deals with Variola virus. The assay can be described thus: Antiviral activity against Variola virus BSH74-sol infected in african green monkey BSC-40 cells at 0.05 to 0.5 uM by IHC staining-based plaque reduction assay. Type of assay: functional, organism-based. In general terms: Plaques are areas of infected cells; plaque reduction assays count them against a control.
A further assay concerns Monkeypox virus. The experiment in a line: Antiviral activity against Monkeypox virus V78-I-3945 infected in african green monkey BSC-40 cells assessed as reduction in viral plaque formation at 0.015 uM uM by IHC staining-based plaque reduction assay. Type of assay: functional.
Assay [2] has as its system Variola virus. The assay can be described thus: Antiviral activity against Variola virus SUD47-juba infected in african green monkey BSC-40 cells at 0.015 uM assessed as reduction in virus-induced cytopathic effect. Type of assay: functional, organism-based. A general note: Protection from cytopathic effect is a common read-out in antiviral testing.

With `O=C(NN1C(=O)[C@@H]2[C@@H]3C=C[C@@H]([C@H]4C[C@@H]34)[C@@H]2C1=O)c1ccc(C(F)(F)F)cc1` [TECOVIRIMAT], the result with Variola virus [1] and with Variola virus [2] was Active. In the assay on Monkeypox virus, the “inhibition (INH)” value is on record as 50%.
